Laboratory results published in patent US20160257697A1, “THIOPHENE-SUBSTITUTED TETRACYCLIC COMPOUNDS AND METHODS OFUSE THEREOF FOR THE TREATMENT OF VIRAL DISEASES” (priority 2013, published 2016).
Like-named read-outs stand apart in the source and are kept apart here.

What was measured:
Assay in all cases: microbe, parasite or virus in culture
Type in all cases: cell-based, Hepatitis C virus (HCV)
HCV replicon 2B = settings: Replicon Assay A
Outline: (§1)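 Compound is added to replicon cells plated at 2000 cells/well (0.5% DMSO, 5% FBS). After 3 days the cells are washed and lysed, and HCV RNA and cyclophilin mRNA are quantified by multiplex RT-PCR against a standard curve of known replicon total RNA.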

HCV replicon 1A = settings: Replicon Assay A
Outline: as §1

HCV replicon 1AY93H = settings: Replicon Assay A
Outline: as §1

HCV replicon 1AQ30D = settings: Replicon Assay B
HCV replicon 1B = settings: Replicon Assay B
[1] = Hepatitis C virus, read-out: 1A Q30D IC50 (nM), replicon 1AQ30D
[2] = read-out: 1A Y93H IC50, replicon 1AY93H
[3] = read-out: 1A Q30D IC50, replicon 1AQ30D
[4] = read-out: 2B IC50, HCV replicon 2B
[5] = read-out: 1A Y93H IC50, HCV replicon 1A Y93H
[6] = read-out: 1A Q30D IC50, HCV replicon 1A Q30D

COC(=O)NC(C(=O)N1CCC[C@H]1c1ncc(-c2cc(F)c3c(c2)OC(c2ccc(C)s2)n2c-3cc3cc(-c4cnc([C@@H]5CCCN5C(=O)[C@@H](NC(=O)OC)C5CCOCC5)[nH]4)ccc32)[nH]1)C(C)(C)F (single isomer, unassigned) [Compound 105]
IC50 (HCV replicon 2B; replicon 2B, read-out: 2B IC50): 0.012 nM
IC50 (HCV replicon 1A; replicon 1A): 1.5 pM
IC50 (HCV replicon 1AY93H; replicon 1AY93H, read-out: 1A Y93H IC50): 0.01 nM
IC50 (HCV replicon 1AQ30D; replicon 1AQ30D, read-out: 1A Q30D IC50): 0.03 nM
IC50 (HCV replicon 1B; replicon 1B): 2.9 pM

COC(=O)N[C@H](C(=O)N1CCC[C@H]1c1ncc(-c2cc(F)c3c(c2)OC(c2ccc(C4CC4)s2)n2c-3cc3cc(-c4cnc([C@@H]5CCCN5C(=O)[C@@H](NC(=O)OC)C5C[C@@H](C)O[C@@H](C)C5)[nH]4)ccc32)[nH]1)C1C[C@@H](C)O[C@@H](C)C1 (stereo partly drawn) [Compound 303]
IC50 (HCV replicon 2B; Hepatitis C virus, read-out: 2B IC50 (nM), replicon 2B): 0.003 nM
IC50 (HCV replicon 1A; Hepatitis C virus, replicon 1A): 2.6 pM
IC50 (HCV replicon 1AY93H; Hepatitis C virus, read-out: 1A Y93H IC50 (nM), replicon 1AY93H): 0.002 nM
IC50 (HCV replicon 1AQ30D; [1]): 0.008 nM
IC50 (HCV replicon 1B; Hepatitis C virus, replicon 1B): 1.3 pM

COC(=O)N[C@H](C(=O)N1CCC[C@H]1c1ncc(-c2cc(F)c3c(c2)OC(c2cc(C4CC4)cs2)n2c-3cc3cc(-c4cnc([C@@H]5CCCN5C(=O)[C@@H](NC(=O)OC)C(C)C)[nH]4)ccc32)[nH]1)C(C)C (single isomer, unassigned) [Compound 24]
IC50 (HCV replicon 2B; read-out: 2B IC50, replicon 2B): 2.75 nM
IC50 (HCV replicon 1A; replicon 1A): 2.7 pM
IC50 (HCV replicon 1AY93H; [2]): 1.35 nM
IC50 (HCV replicon 1AQ30D; [3]): 14.9 nM
IC50 (HCV replicon 1B; replicon 1B): 3.1 pM

COC(=O)N[C@@H](Cc1ccccc1)C(=O)N1CCC[C@H]1c1ncc(-c2ccc3c(c2)OC(c2ccc(-c4ccc(NC(=O)CCCC[C@@H]5SC[C@@H]6NC(=O)N[C@@H]65)cc4)s2)n2c-3cc3cc(-c4cnc([C@@H]5CCCN5C(=O)[C@H](Cc5ccccc5)NC(=O)OC)[nH]4)ccc32)[nH]1 (single isomer, unassigned) [Compound 384]
IC50 (HCV replicon 2B; read-out: 2B IC50, replicon 2B): 3.75 nM
IC50 (HCV replicon 1A; replicon 1A): 15.6 pM
IC50 (HCV replicon 1AY93H; [2]): 0.923 nM
IC50 (HCV replicon 1AQ30D; [1]): 16.7 nM
IC50 (HCV replicon 1B; Hepatitis C virus, replicon 1B): 9.5 pM

COC(=O)N[C@H](C(=O)N1CCC[C@H]1c1ncc(-c2cc(C)c3c(c2)OC(c2ccc(C4CC4)s2)n2c-3cc3cc(-c4cnc([C@@H]5C[C@H]6C[C@H]6N5C(=O)[C@@H](NC(=O)OC)C(C)C)[nH]4)ccc32)[nH]1)C(C)C (single isomer, unassigned) [Compound 754]
IC50 (HCV replicon 2B; [4]): 0.039 nM
IC50 (HCV replicon 1A; Hepatitis C virus, HCV replicon 1A): 2.4 pM
IC50 (HCV replicon 1AY93H; [5]): 0.042 nM
IC50 (HCV replicon 1AQ30D; [6]): 0.433 nM
IC50 (HCV replicon 1B; Hepatitis C virus, HCV replicon 1B): 2.6 pM

COC(=O)NC(C(=O)N1CCC[C@H]1c1ncc(-c2cc(F)c3c(c2)OC(c2ccc(C4CC4)s2)n2c-3cc3cc(-c4cnc([C@@H]5CCCN5C(=O)[C@@H](NC(=O)OC)C(C)C)[nH]4)ccc32)[nH]1)C1C[C@@H](C)O[C@@H](C)C1 (single isomer, unassigned) [Compound 189]
IC50 (HCV replicon 2B; read-out: 2B IC50, replicon 2B): 0.48 nM
IC50 (HCV replicon 1A; replicon 1A): 1.3 pM
IC50 (HCV replicon 1AY93H; [2]): 0.26 nM
IC50 (HCV replicon 1AQ30D; [3]): 1.42 nM
IC50 (HCV replicon 1B; replicon 1B): 1.8 pM

COC(=O)NC(C(=O)N1CCC[C@H]1c1ncc(-c2ccc3c(c2)cc2n3C(c3ccc(C4CC4)s3)Oc3cc(-c4cnc([C@@H]5CCCN5C(=O)[C@@H](NC(=O)OC)C(C)C)[nH]4)cc(F)c3-2)[nH]1)C1CCO[C@H](C)C1 (single isomer, unassigned) [Compound 135]
IC50 (HCV replicon 2B; read-out: 2B IC50, replicon 2B): 0.006 nM
IC50 (HCV replicon 1A; replicon 1A): 2.4 pM
IC50 (HCV replicon 1AY93H; [2]): 0.004 nM
IC50 (HCV replicon 1AQ30D; [3]): 0.027 nM
IC50 (HCV replicon 1B; replicon 1B): 3 pM

COC(=O)N[C@H](C(=O)N1CCC[C@H]1c1ncc(-c2cc(C)c3c(c2)OC(c2ccc(C4CC4)s2)n2c-3cc3cc(-c4cnc([C@@H]5CCCN5C(=O)[C@@H](NC(=O)OC)C(C)C)[nH]4)ccc32)[nH]1)C(C)C (single isomer, unassigned) [Compound 753]
IC50 (HCV replicon 2B; [4]): 0.023 nM
IC50 (HCV replicon 1A; HCV replicon 1A): 5.7 pM
IC50 (HCV replicon 1AY93H; [5]): 0.06 nM
IC50 (HCV replicon 1AQ30D; [6]): 0.639 nM
IC50 (HCV replicon 1B; HCV replicon 1B): 2 pM

CCc1ccc(C2Oc3cc(-c4cnc([C@@H]5CCCN5C(=O)C(NC(=O)OC)C5C[C@@H](C)O[C@@H](C)C5)[nH]4)cc(F)c3-c3cc4cc(-c5cnc([C@@H]6CCCN6C(=O)C(NC(=O)OC)C6C[C@@H](C)O[C@@H](C)C6)[nH]5)ccc4n32)s1 (single isomer, unassigned) [Compound 300]
IC50 (HCV replicon 2B; read-out: 2B IC50, replicon 2B): 0.003 nM
IC50 (HCV replicon 1A; replicon 1A): 2.4 pM
IC50 (HCV replicon 1AY93H; [2]): 0.002 nM
IC50 (HCV replicon 1AQ30D; [1]): 0.006 nM
IC50 (HCV replicon 1B; Hepatitis C virus, replicon 1B): 3.2 pM
